Test results as given in ChEMBL document CHEMBL1909294, “Translating clinical findings into knowledge in drug safety evaluation--drug induced liver injury prediction system (DILIps)” (PLoS Comput Biol, 2011).

What was measured:
[1] = system: Hepatotoxicity;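 for HepSE cholecystitis: Cholecystitis-related hepatic side effect score drawn from the DILIps (drug-induced liver injury prediction) training data set; call rule not given here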;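 for HepSE cholelithiasis: hepatic side effect score for cholelithiasis, drawn from the DILIps training data for predicting drug-induced liver injury; call rule not given here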;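 for HepSE elevated liver function tests: hepatic side effect score for raised liver function tests, as recorded in the DILIps training set used for predicting drug-induced liver injury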; for HepSE hepatic failure: call rule not given here;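 for HepSE hepatomegaly: hepatic side effect score for hepatomegaly, taken from the training set of the DILIps drug-induced liver injury prediction system; call rule not given here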;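 for HepSE jaundice: Jaundice-related hepatic side-effect score drawn from the training data of the DILIps (drug-induced liver injury prediction system); call rule not given here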;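 for HepSE liver function tests abnormal: hepatic side effect score taken from the DILIps (drug-induced liver injury prediction system) training data, here covering abnormal liver function test findings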
[2] = system: Hepatotoxicity; remark: listed apart in the source;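 for HepSE cholecystitis: Cholecystitis-related hepatic side effect score drawn from the DILIps (drug-induced liver injury prediction) training data set; call rule not given here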;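 for HepSE cholelithiasis: hepatic side effect score for cholelithiasis, drawn from the DILIps training data for predicting drug-induced liver injury; call rule not given here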; for HepSE hepatic failure: call rule not given here;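 for HepSE hepatomegaly: hepatic side effect score for hepatomegaly, taken from the training set of the DILIps drug-induced liver injury prediction system; call rule not given here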;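 for HepSE jaundice: Jaundice-related hepatic side-effect score drawn from the training data of the DILIps (drug-induced liver injury prediction system); call rule not given here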;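 for HepSE liver function tests abnormal: hepatic side effect score taken from the DILIps (drug-induced liver injury prediction system) training data, here covering abnormal liver function test findings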
[3] = system: Hepatotoxicity; remark: listed apart in the source;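 for HepSE cholecystitis: Cholecystitis-related hepatic side effect score drawn from the DILIps (drug-induced liver injury prediction) training data set; call rule not given here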;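 for HepSE cholelithiasis: hepatic side effect score for cholelithiasis, drawn from the DILIps training data for predicting drug-induced liver injury; call rule not given here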; for HepSE hepatic failure: call rule not given here;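 for HepSE hepatomegaly: hepatic side effect score for hepatomegaly, taken from the training set of the DILIps drug-induced liver injury prediction system; call rule not given here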;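 for HepSE jaundice: Jaundice-related hepatic side-effect score drawn from the training data of the DILIps (drug-induced liver injury prediction system); call rule not given here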;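 for HepSE liver function tests abnormal: hepatic side effect score taken from the DILIps (drug-induced liver injury prediction system) training data, here covering abnormal liver function test findings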
[4] = system: Hepatotoxicity; remark: listed apart in the source;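 for HepSE cholecystitis: Cholecystitis-related hepatic side effect score drawn from the DILIps (drug-induced liver injury prediction) training data set; call rule not given here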;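 for HepSE cholelithiasis: hepatic side effect score for cholelithiasis, drawn from the DILIps training data for predicting drug-induced liver injury; call rule not given here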; for HepSE hepatic failure: call rule not given here;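 for HepSE hepatomegaly: hepatic side effect score for hepatomegaly, taken from the training set of the DILIps drug-induced liver injury prediction system; call rule not given here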;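 for HepSE jaundice: Jaundice-related hepatic side-effect score drawn from the training data of the DILIps (drug-induced liver injury prediction system); call rule not given here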;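 for HepSE liver function tests abnormal: hepatic side effect score taken from the DILIps (drug-induced liver injury prediction system) training data, here covering abnormal liver function test findings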
[5] = system: Hepatotoxicity; remark: listed apart in the source; for HepSE hepatic failure: call rule not given here
[6] = system: Hepatotoxicity; remark: listed apart in the source; for HepSE hepatic failure: call rule not given here
[7] = system: Hepatotoxicity; remark: listed apart in the source
[8] = system: Hepatotoxicity; remark: listed apart in the source
[9] = system: Hepatotoxicity; remark: listed apart in the source
[10] = system: Hepatotoxicity; remark: listed apart in the source
[11] = system: Hepatotoxicity; remark: listed apart in the source
[12] = system: Hepatotoxicity; remark: listed apart in the source
[13] = system: Hepatotoxicity; remark: listed apart in the source
[14] = system: Hepatotoxicity; remark: listed apart in the source

MANGAFODIPIR was tested. Which HepSE_jaundice [1] did it give?
The HepSE_jaundice was 0.

What about the HepSE_cholelithiasis [2] of the same sequence?
The HepSE_cholelithiasis was 0.

And the HepSE_liver fatty [3]?
Its HepSE_liver fatty is 0.

And the HepSE_hepatomegaly [4]?
Its HepSE_hepatomegaly is 0.

And the HepSE_hepatic failure [5]?
Its HepSE_hepatic failure is 0.

What about the “HepSE_liver function tests abnormal” value [6] of the same sequence?
The value was 0.

What about the HepSE_cholecystitis [7] of the same sequence?
Its HepSE_cholecystitis is 0.

What about the “HepSE_elevated liver function tests” value [8] of the same sequence?
Its value is 0.

And the HepSE_liver disease [9]?
The HepSE_liver disease was 0.

What about the HepSE_bilirubinemia [10] of the same sequence?
Its HepSE_bilirubinemia is 0.

What about the HepSE_cirrhosis [11] of the same sequence?
The HepSE_cirrhosis was 0.

What about the “HepSE_Combined Scores” value [12] of the same sequence?
The value was 0.

What about the HepSE_hepatic necrosis [13] of the same sequence?
The HepSE_hepatic necrosis was 0.

What about the HepSE_hepatitis [14] of the same sequence?
The HepSE_hepatitis was 0.

NITROPRUSSIDE was tested. Which HepSE_jaundice [1] did it give?
The HepSE_jaundice was 0.

And the HepSE_cholelithiasis [2]?
The HepSE_cholelithiasis was 0.

What about the HepSE_liver fatty [3] of the same sequence?
The HepSE_liver fatty was 0.

And the HepSE_hepatomegaly [4]?
Its HepSE_hepatomegaly is 0.

What about the HepSE_hepatic failure [5] of the same sequence?
The HepSE_hepatic failure was 0.

And the “HepSE_liver function tests abnormal” value [6]?
Its value is 0.

What about the HepSE_cholecystitis [7] of the same sequence?
The HepSE_cholecystitis was 0.

What about the “HepSE_elevated liver function tests” value [8] of the same sequence?
The value was 0.

What about the HepSE_liver disease [9] of the same sequence?
Its HepSE_liver disease is 0.

What about the HepSE_bilirubinemia [10] of the same sequence?
Its HepSE_bilirubinemia is 0.

And the HepSE_cirrhosis [11]?
The HepSE_cirrhosis was 0.

What about the “HepSE_Combined Scores” value [12] of the same sequence?
Its value is 0.

And the HepSE_hepatic necrosis [13]?
Its HepSE_hepatic necrosis is 0.

And the HepSE_hepatitis [14]?
Its HepSE_hepatitis is 0.

What does the source list for NYSTATIN?
HepSE_jaundice [1]: 0; HepSE_cholelithiasis [2]: 0; HepSE_liver fatty [3]: 0; HepSE_hepatomegaly [4]: 0; HepSE_hepatic failure [5]: 0; HepSE_liver function tests abnormal [6]: 0; HepSE_cholecystitis [7]: 0; HepSE_elevated liver function tests [8]: 0; HepSE_liver disease [9]: 0; HepSE_bilirubinemia [10]: 0; HepSE_cirrhosis [11]: 0; HepSE_Combined Scores [12]: 0; HepSE_hepatic necrosis [13]: 0; HepSE_hepatitis [14]: 0

What does the source list for OXALIPLATIN?
HepSE_jaundice [1]: 0; HepSE_cholelithiasis [2]: 0; HepSE_liver fatty [3]: 0; HepSE_hepatomegaly [4]: 0; HepSE_hepatic failure [5]: 0; HepSE_liver function tests abnormal [6]: 0; HepSE_cholecystitis [7]: 0; HepSE_elevated liver function tests [8]: 0; HepSE_liver disease [9]: 1; HepSE_bilirubinemia [10]: 1; HepSE_cirrhosis [11]: 0; HepSE_Combined Scores [12]: 2; HepSE_hepatic necrosis [13]: 0; HepSE_hepatitis [14]: 0

Which results are given for PORFIMER SODIUM?
HepSE_jaundice [1]: 1; HepSE_cholelithiasis [2]: 0; HepSE_liver fatty [3]: 0; HepSE_hepatomegaly [4]: 0; HepSE_hepatic failure [5]: 0; HepSE_liver function tests abnormal [6]: 0; HepSE_cholecystitis [7]: 0; HepSE_elevated liver function tests [8]: 0; HepSE_liver disease [9]: 0; HepSE_bilirubinemia [10]: 0; HepSE_cirrhosis [11]: 0; HepSE_Combined Scores [12]: 1; HepSE_hepatic necrosis [13]: 0; HepSE_hepatitis [14]: 0

Which results are given for SEVELAMER?
HepSE_jaundice [1]: 0; HepSE_cholelithiasis [2]: 0; HepSE_liver fatty [3]: 0; HepSE_hepatomegaly [4]: 0; HepSE_hepatic failure [5]: 0; HepSE_liver function tests abnormal [6]: 0; HepSE_cholecystitis [7]: 0; HepSE_elevated liver function tests [8]: 0; HepSE_liver disease [9]: 0; HepSE_bilirubinemia [10]: 0; HepSE_cirrhosis [11]: 0; HepSE_Combined Scores [12]: 0; HepSE_hepatic necrosis [13]: 0; HepSE_hepatitis [14]: 0

For UROFOLLITROPIN, which HepSE_jaundice [1] is on record?
The HepSE_jaundice was 0.

What about the HepSE_cholelithiasis [2] of the same sequence?
The HepSE_cholelithiasis was 0.

What about the HepSE_liver fatty [3] of the same sequence?
The HepSE_liver fatty was 0.

What about the HepSE_hepatomegaly [4] of the same sequence?
Its HepSE_hepatomegaly is 0.

What about the HepSE_hepatic failure [5] of the same sequence?
The HepSE_hepatic failure was 0.

And the “HepSE_liver function tests abnormal” value [6]?
The value was 0.

What about the HepSE_cholecystitis [7] of the same sequence?
The HepSE_cholecystitis was 0.

What about the “HepSE_elevated liver function tests” value [8] of the same sequence?
The value was 0.

What about the HepSE_liver disease [9] of the same sequence?
The HepSE_liver disease was 0.

What about the HepSE_bilirubinemia [10] of the same sequence?
Its HepSE_bilirubinemia is 0.

What about the HepSE_cirrhosis [11] of the same sequence?
Its HepSE_cirrhosis is 0.

And the “HepSE_Combined Scores” value [12]?
Its value is 0.

And the HepSE_hepatic necrosis [13]?
Its HepSE_hepatic necrosis is 0.

What about the HepSE_hepatitis [14] of the same sequence?
Its HepSE_hepatitis is 0.

VERTEPORFIN was tested. Which HepSE_jaundice [1] did it give?
Its HepSE_jaundice is 0.

What about the HepSE_cholelithiasis [2] of the same sequence?
The HepSE_cholelithiasis was 0.

And the HepSE_liver fatty [3]?
The HepSE_liver fatty was 0.

And the HepSE_hepatomegaly [4]?
The HepSE_hepatomegaly was 0.

What about the HepSE_hepatic failure [5] of the same sequence?
Its HepSE_hepatic failure is 0.

What about the “HepSE_liver function tests abnormal” value [6] of the same sequence?
Its value is 0.

And the HepSE_cholecystitis [7]?
Its HepSE_cholecystitis is 0.

What about the “HepSE_elevated liver function tests” value [8] of the same sequence?
The value was 1.

What about the HepSE_liver disease [9] of the same sequence?
The HepSE_liver disease was 0.

What about the HepSE_bilirubinemia [10] of the same sequence?
The HepSE_bilirubinemia was 0.

And the HepSE_cirrhosis [11]?
The HepSE_cirrhosis was 0.

What about the “HepSE_Combined Scores” value [12] of the same sequence?
The value was 1.

And the HepSE_hepatic necrosis [13]?
The HepSE_hepatic necrosis was 0.

And the HepSE_hepatitis [14]?
Its HepSE_hepatitis is 0.
